Assay results: US20220128542A1, “TREATMENT EFFICIENCY EVALUATION” (TX MEDIC AB, priority 2019, published 2022)

Test system: brain of rats subjected to severe traumatic brain injury (sTBI)
Assay: Ingenuity pathway analysis of differentially regulated genes after sTBI (canonical pathways, diseases and molecular functions; Example 4)
Parameters: species or system rat
Conditions: TBI + 5 mg/kg LMW-DS
Method: Pathway analysis of the differentially regulated genes was carried out using the Ingenuity pathway analysis package. The analysis was performed with special reference to pathways and molecular processes and diseases associated with neurodegenerative disease, including dementia, Alzheimer's disease, ALS, TBI and stroke, and with scarring and fibrosis, including glaucoma and normal pressure hydrocephalus (NPH) after subarachnoid haemorrhage.

[1] = 7 days after TBI, relative to control

sodium salt of dextran sulfate [LMW-DS]
−1.342: z score, Ingenuity canonical pathway: PPAR Signaling [1] | z score, Ingenuity canonical pathway: Protein Kinase A Signaling [1]
−2: z score, Ingenuity canonical pathway: cAMP-mediated signaling [1]
1: z score, Ingenuity canonical pathway: Cardiac Hypertrophy Signaling [1] | z score, Ingenuity canonical pathway: ERK/MAPK Signaling [1] | z score, Ingenuity canonical pathway: IL-1 Signaling [1] | z score, Ingenuity canonical pathway: IL-6 Signaling [1] | z score, Ingenuity canonical pathway: Phospholipase C Signaling [1] | z score, Ingenuity canonical pathway: Signaling by Rho Family GTPases [1] | z score, Ingenuity canonical pathway: Synaptic Long Term Depression [1] | z score, Ingenuity canonical pathway: mTOR Signaling [1]
2.646: z score, Ingenuity canonical pathway: IL-8 Signaling [1]
-1: z score, Ingenuity canonical pathway: Osteoarthritis Pathway [1]
1.633: z score, Ingenuity canonical pathway: Endothelin-1 Signaling [1]
Activated: Effect on diseases or functions annotation: Secretion of molecule (2 days after TBI) | Effect on diseases or functions annotation: Transport of molecule (2 days after TBI) | Diseases or functions annotation: Abdominal adenocarcinoma (7 days after TBI) | Diseases or functions annotation: Abdominal neoplasm (7 days after TBI) | Diseases or functions annotation: Angiogenesis (7 days after TBI) | Diseases or functions annotation: Cancer (7 days after TBI) | Diseases or functions annotation: Cancer of cells (7 days after TBI) | Diseases or functions annotation: Cancer of secretory structure (7 days after TBI) | Diseases or functions annotation: Cell cycle progression (7 days after TBI) | Diseases or functions annotation: Cell death (7 days after TBI) | Diseases or functions annotation: Cell death of epithelial cells (7 days after TBI) | Diseases or functions annotation: Cell movement (7 days after TBI) | Diseases or functions annotation: Cell movement of endothelial cells (7 days after TBI) | Diseases or functions annotation: Cell movement of myeloid cells (7 days after TBI) | Diseases or functions annotation: Cell movement of tumor cell lines (7 days after TBI) | Diseases or functions annotation: Cell survival (7 days after TBI) | Diseases or functions annotation: Cell viability (7 days after TBI) | Diseases or functions annotation: Cell viability of tumor cell lines (7 days after TBI) | Diseases or functions annotation: Cellular homeostasis (7 days after TBI) | Diseases or functions annotation: Chemotaxis (7 days after TBI) | Diseases or functions annotation: Development of body axis (7 days after TBI) | Diseases or functions annotation: Development of body trunk (7 days after TBI) | Diseases or functions annotation: Development of connective tissue cells (7 days after TBI) | Diseases or functions annotation: Development of epithelial tissue (7 days after TBI) | Diseases or functions annotation: Development of head (7 days after TBI) | Diseases or functions annotation: Development of neurons (7 days after TBI) | Diseases or functions annotation: Development of sensory organ (7 days after TBI) | Diseases or functions annotation: Development of vasculature (7 days after TBI) | Diseases or functions annotation: Differentiation of bone (7 days after TBI) | Diseases or functions annotation: Differentiation of bone cells (7 days after TBI) | Diseases or functions annotation: Differentiation of connective tissue cells (7 days after TBI) | Diseases or functions annotation: Expression of RNA (7 days after TBI) | Diseases or functions annotation: Extracranial solid tumor (7 days after TBI) | Diseases or functions annotation: Failure of kidney (7 days after TBI) | Diseases or functions annotation: Formation of eye (7 days after TBI) | Diseases or functions annotation: Genital tumor (7 days after TBI) | Diseases or functions annotation: Genitourinary carcinoma (7 days after TBI) | Diseases or functions annotation: Genitourinary tumor (7 days after TBI) | Diseases or functions annotation: Glucose metabolism disorder (7 days after TBI) | Diseases or functions annotation: Growth of tumor (7 days after TBI) | Diseases or functions annotation: Invasion of cells (7 days after TBI) | Diseases or functions annotation: Leukocyte migration (7 days after TBI) | Diseases or functions annotation: Malignant genitourinary solid tumor (7 days after TBI) | Diseases or functions annotation: Malignant solid tumor (7 days after TBI) | Diseases or functions annotation: Microtubule dynamics (7 days after TBI) | Diseases or functions annotation: Migration of cells (7 days after TBI) | Diseases or functions annotation: Migration of endothelial cells (7 days after TBI) | Diseases or functions annotation: Necrosis (7 days after TBI) | Diseases or functions annotation: Necrosis of epithelial tissue (7 days after TBI) | Diseases or functions annotation: Neoplasia of cells (7 days after TBI) | Diseases or functions annotation: Non-hematological solid tumor (7 days after TBI) | Diseases or functions annotation: Non-melanoma solid tumor (7 days after TBI) | Diseases or functions annotation: Obesity (7 days after TBI) | Diseases or functions annotation: Organization of cytoskeleton (7 days after TBI) | Diseases or functions annotation: Pelvic tumor (7 days after TBI) | Diseases or functions annotation: Peripheral vascular disease (7 days after TBI) | Diseases or functions annotation: Quantity of cells (7 days after TBI) | Diseases or functions annotation: Quantity of connective tissue (7 days after TBI) | Diseases or functions annotation: Renal impairment (7 days after TBI) | Diseases or functions annotation: Secretion of molecule (7 days after TBI) | Diseases or functions annotation: Size of body (7 days after TBI) | Diseases or functions annotation: Solid tumor (7 days after TBI) | Diseases or functions annotation: Synthesis of lipid (7 days after TBI) | Diseases or functions annotation: Transcription (7 days after TBI) | Diseases or functions annotation: Transcription of RNA (7 days after TBI) | Diseases or functions annotation: Transport of molecule (7 days after TBI) | Diseases or functions annotation: Vasculogenesis (7 days after TBI)
2: z score, Ingenuity canonical pathway: GNRH Signaling [1] | z score, Ingenuity canonical pathway: PKCθ Signaling in T Lymphocytes [1]
1.134: z score, Ingenuity canonical pathway: HMGB1 Signaling [1]
2.53: z score, Ingenuity canonical pathway: Role of NFAT in Regulation of the Immune Response [1]
−0.378: z score, Ingenuity canonical pathway: Colorectal Cancer Metastasis Signaling [1]
2.236: z score, Ingenuity canonical pathway: Fcγ Receptor-mediated Phagocytosis in Macrophages and Monocytes [1] | z score, Ingenuity canonical pathway: Production of Nitric Oxide and Reactive Oxygen Species in Macrophages [1]
−0.447: z score, Ingenuity canonical pathway: ERK5 Signaling [1]
Inhibited: Effect on diseases or functions annotation: Resorption of bone (2 days after TBI) | Effect on diseases or functions annotation: Size of body (2 days after TBI) | Effect on diseases or functions annotation: Synthesis of hormone (2 days after TBI) | Effect on diseases or functions annotation: Transcription of RNA (2 days after TBI) | Effect on diseases or functions annotation: Vasculogenesis (2 days after TBI) | Diseases or functions annotation: Abdominal cancer (7 days after TBI) | Diseases or functions annotation: Abdominal carcinoma (7 days after TBI) | Diseases or functions annotation: Adenocarcinoma (7 days after TBI) | Diseases or functions annotation: Apoptosis (7 days after TBI) | Diseases or functions annotation: Apoptosis of tumor cell lines (7 days after TBI) | Diseases or functions annotation: Bleeding (7 days after TBI) | Diseases or functions annotation: Breast or colorectal cancer (7 days after TBI) | Diseases or functions annotation: Breast or ovarian cancer (7 days after TBI) | Diseases or functions annotation: Breast or pancreatic cancer (7 days after TBI) | Diseases or functions annotation: Carcinoma (7 days after TBI) | Diseases or functions annotation: Cell death of tumor cell lines (7 days after TBI) | Diseases or functions annotation: Concentration of lipid (7 days after TBI) | Diseases or functions annotation: Development of genitourinary system (7 days after TBI) | Diseases or functions annotation: Digestive organ tumor (7 days after TBI) | Diseases or functions annotation: Digestive system cancer (7 days after TBI) | Diseases or functions annotation: Endocrine gland tumor (7 days after TBI) | Diseases or functions annotation: Gastrointestinal tumor (7 days after TBI) | Diseases or functions annotation: Growth of connective tissue (7 days after TBI) | Diseases or functions annotation: Growth of epithelial tissue (7 days after TBI) | Diseases or functions annotation: Head and neck cancer (7 days after TBI) | Diseases or functions annotation: Head and neck tumor (7 days after TBI) | Diseases or functions annotation: Hematologic cancer (7 days after TBI) | Diseases or functions annotation: Hematologic cancer of cells (7 days after TBI) | Diseases or functions annotation: Hematopoietic neoplasm (7 days after TBI) | Diseases or functions annotation: Intestinal tumor (7 days after TBI) | Diseases or functions annotation: Lymphatic system tumor (7 days after TBI) | Diseases or functions annotation: Lymphocytic cancer (7 days after TBI) | Diseases or functions annotation: Lymphocytic neoplasm (7 days after TBI) | Diseases or functions annotation: Lymphoid cancer (7 days after TBI) | Diseases or functions annotation: Lymphoma (7 days after TBI) | Diseases or functions annotation: Lymphoproliferative disorder (7 days after TBI) | Diseases or functions annotation: Lymphoreticular neoplasm (7 days after TBI) | Diseases or functions annotation: Morbidity or mortality (7 days after TBI) | Diseases or functions annotation: Neoplasia of leukocytes (7 days after TBI) | Diseases or functions annotation: Nonhematologic malignant neoplasm (7 days after TBI) | Diseases or functions annotation: Organismal death (7 days after TBI) | Diseases or functions annotation: Proliferation of connective tissue cells (7 days after TBI) | Diseases or functions annotation: Proliferation of epithelial cells (7 days after TBI) | Diseases or functions annotation: Sensory system development (7 days after TBI) | Diseases or functions annotation: Skin lesion (7 days after TBI) | Diseases or functions annotation: Skin tumor (7 days after TBI) | Diseases or functions annotation: Tumorigenesis of tissue (7 days after TBI)
1.897: z score, Ingenuity canonical pathway: Dendritic Cell Maturation [1]
1.941: z score, Ingenuity canonical pathway: Neuroinflammation Signaling Pathway [1]
1.342: z score, Ingenuity canonical pathway: Leukocyte Extravasation Signaling [1]
−0.632: z score, Ingenuity canonical pathway: Adrenomedullin signaling pathway [1]
−1: z score, Ingenuity canonical pathway: Wnt/β-catenin Signaling [1]
1.89: z score, Ingenuity canonical pathway: Acute Phase Response Signaling [1] | z score, Ingenuity canonical pathway: ILK Signaling [1] | z score, Ingenuity canonical pathway: PI3K Signaling in B Lymphocytes [1]
